Assay results: PMC5438364, “A broad-spectrum bactericidal lipopeptide with anti-biofilm properties” (Scientific Reports, 2017)
Values after ≈ are worked out from the molar mass of the structure shown. Where a SMILES comes first, the peptide text is derived from it. [ ]: non-standard residue; d: D form. The star is where a group is joined. Myristoyl = CCCCCCCCCCCCCC(=O)*; 12Ado = NCCCCCCCCCCCC(=O)O

Tests used:
Enterococci = type: cell-based
Description: (§1) Staphylococci, Bacilli, Escherichia, Pseudomonas, Acinetobacter, Salmonella and Klebsiella species were grown in Luria Bertani broth (LB; 5 gr/l NaCl, 5 gr/l yeast extract, 10 gr/l tryptone). Enterococci and E. coli ML-35p were grown in Tryptic Soy Broth (TSB). Listeria and Streptococci were grown in Brain Heart Infusion (BHI). All bacteria were grown over-night at 37 °C with shaking. S. mutans 35668 plated on BHI agar for enumeration was grown for 48 hr. S. mutans UA159 was grown in 5% CO2 enriched atmosphere. Fusobacterium and Porphyromonas were grown in Wilkins-Chalgren growth medium and an anaerobic atmosphere.
(§2) Minimal inhibitory concentration (MIC) was determined using the microdilution assay. Mid-log-phase bacteria at 5 × 10^5 CFU/ml were incubated in a 96-well plate with serial two-fold dilutions of the tested compound for 18–24 hr at 37 °C (final volume of 200 µl). O.D. at 620 nm was measured (Synergy HT, BioTek Instruments, Winooski, VT, USA), and the MIC was determined as the lowest concentration for which no increase in O.D. was detected.

Listeria = type: cell-based
Description: as §1, §2

Staphylococci = type: cell-based
Description: as §1, §2

Streptococci = type: cell-based
Description: as §1, §2

Porphyromonas = type: cell-based, Porphyromonas gingivalis; conditions: 48 h
Source text: Gram-negative bacteria tested were: ATCC strains Escherichia coli 25922, 43894, Pseudomonas aeruginosa 27853, 9027, Acinetobacter baumannii 19606, A. caloaceticus 31299, Salmonella Typhimurium 14028, Fusobacterium nucleatum 23726, Porphyromonas gingivalis 53977, clinical isolates E. coli 14182, 14384, U-16327, U-16329, P. aeruginosa 1278, Klebsiella pneumoniae 1287, K2–224, C2, A. baumannii 1279, 1280, 1281, F. nucleatum PK 1594, the engineered E. coli ML-35p and the isogenic K-12 pair AG100, AG100a (ΔacrAB). Dental related bacteria (generous gift of Prof. Doron Steinberg and Gilad Bachrach from the Hebrew University of Jerusalem) appear in bold characters.
as §1, with “S. mutans UA159 was grown in 5% CO2 enriched atmosphere. Fusobacterium and Porphyromonas were grown in Wilkins-Chalgren growth medium and an anaerobic atmosphere.” left out
Minimal inhibitory concentration (MIC) was determined using the microdilution assay. […] O.D. at 620 nm was measured (Synergy HT, BioTek Instruments, Winooski, VT, USA), and the MIC was determined as the lowest concentration for which no increase in O.D. was detected.

S. mutans = test: microbe, parasite or virus in culture; type: cell-based, Streptococcus mutans
Description: as §1, §2

E. coli 25922 = type: cell-based, Escherichia coli
Description: as §2

E. coli ML-35p [1] = test: Bactericidal kinetics (time-kill); type: cell-based, Escherichia coli; conditions: within 2 hours exposure at ≥MIC; 5 × 10^5 CFU/ml, 37 °C
Description: Bactericidal kinetics was assessed by incubating 5 × 10^5 CFU/ml of mid-log-phase bacteria with the OAK for 3 hr at 37 °C with shaking. Aliquots were taken at t = 0, 0.5, 1, 2 and 3 hr, subjected to serial 10-fold dilutions in saline (NaCl = 0.85%) and plated for enumeration after 24–48 hr incubation at 37 °C.

E. coli ML-35p [2] = test: Outer and cytoplasmic membrane permeabilization (nitrocefin, ONPG, EtBr); type: cell-based, Escherichia coli; conditions: ONPG and ethidium bromide (CM), 30 min, 37 °C
Description: Cytoplasmic membrane permeation to ethidium bromide (EtBr) was evaluated as follows: Mid-log-phase bacteria at 1 × 10^8 CFU/ml were centrifuged for 5 min at 15,000 g. Pellet was washed twice with PBS containing 0.5% glucose (pH = 7.4), suspended in the same buffer and incubated for 10 min at 37 °C with shaking. 180 µl of the bacterial suspension were mixed in a 96-well plate with 25 µl of the tested compound and EtBr (EtBr final concentration = 1 µg/ml) and fluorescence was recorded immediately (excitation: 535 nm, emission: 590 nm) for up to 30 min at 37 °C with shaking (Synergy HT, BioTek Instruments, Winooski, VT, USA).
Outer and cytoplasmic membrane permeation in Gram-negative bacteria was assessed using the engineered E. coli ML-35p by monitoring the chromogenic hydrolysis of two indicators: ortho-nitrophenyl-β-galactoside (ONPG) and nitrocefin. Mid-log-phase E. coli ML-35p were centrifuged for 5 min at 15,000 g and the supernatant was removed. Pellet was washed three times with sodium phosphate buffer (SPB; 10 mM NaH2PO4, pH = 7) and suspended in the same buffer (O.D. at 620 nm = 1). Bacteria were then 10-fold diluted into SPB containing 3% TSB. […] Hydrolysis of ONPG and nitrocefin was monitored immediately by recording the absorbance at 420 nm and 486 nm respectively, for 30 min at 37 °C with shaking (Synergy HT, BioTek Instruments, Winooski, VT, USA).

[3] = test system: cultivable oral microflora; test: Bacterial killing in whole human saliva; type: cell-based; conditions: within two minutes of exposure, 37 °C
Description: Bactericidal kinetics in saliva was assessed as follows. Whole saliva was pooled from two-three healthy volunteers at a time, after obtaining their informed consent. To test for specific activity against S. mutans, saliva was centrifuged for 5 min at 15,000 g and 4 °C, and the supernatant was spiked with 1 × 10^7 CFU/ml of mid-log-phase S. mutans 35668. Otherwise, activity against natural oral microflora was also performed on whole saliva. Saliva was mixed with the tested compound, incubated at 37 °C with shaking, and aliquots were taken at t = 0, 2, 5 and 10 min. Aliquots were subjected to serial 10-fold dilutions in saline and plated on BHI agar for enumeration.

GPB and GNB = test: Effect observed at low concentrations, analog series; type: cell-based; conditions: summary of this and previous studies
Description: Table 2 Modulating biophysical properties of a core sequence by conjugating an N-terminal acyl. | column: Effect observed at low concentrations (<3 µM)

[4] = test system: Gram-positive bacteria (GPB); conditions: 48 h

Structure (SMILES): CCCCCCCCCCCCCC(=O)N[C@@H](CCCCN)C(=O)N[C@@H](CCCCN)C(=O)NCCCCCCCCCCCC(=O)N[C@@H](CCCCN)C(N)=O [C14KKc12K] (Myristoyl-KK[12Ado]K-NH2)
- MIC range (Enterococci): 3.12 to 6.25 µM
- MIC range (Listeria): 3.12 µM
- MIC range (Staphylococci): 1.56 to 3.12 µM
- MIC range (Streptococci): 0.78 to 3.12 µM
- MIC range (Porphyromonas): 3.12 µM
- MIC (S. mutans): 0.78 µM
- MIC (E. coli 25922): 6 µM
- reduction of viability (E. coli ML-35p [1]): > 2 log-unit
- concentration (MIC value) at which both OM and CM were permeabilized (E. coli ML-35p [2]): 3 µM
- reduction of viability of cultivable oral microflora [3]: > 99%
- Effect observed at low concentrations (<3 µM) (GPB and GNB): High efficacy in membranes disruption leading to a bactericidal mode of action in both GPB & GNB
- MIC50 [4]: 3 µM (≈ 2.43 µg/mL)
